Laboratory results reported in patent US9302999B2, “Substituted triazoles as herbicides” (E. I. DU PONT DE NEMOURS AND COMPANY, priority 2012, dated 2016).
Where two headings read alike, the source gives them in different places.

Assays:
Format in all cases: in vivo
[1] = system: rice (Oryza sativa); assay: Test C flooded paddy test: rice; conditions: Oryza sativa, scale 0 to 100 (0 no effect, 100 complete control), read-out: Plant response rating, Rice; for plant injury at 62 g/ha: 62 g ai/ha; for plant injury at 250 g/ha: 250 g ai/ha; for plant injury at 125 g/ha: 125 g ai/ha
How it was run: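 Rating: visual, 0–100 (100 = complete control), versus untreated controls after 13 to 15 greenhouse days. Treatment went into paddy water held at 3 cm over the soil, on plants grown to two leaves.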

[2] = system: bromegrass, downy (downy bromegrass, Bromus tectorum); assay: Test D pre-/postemergence: bromegrass, downy
Description: (§1) Seeds of plant species selected from bluegrass (annual bluegrass, Poa annua), blackgrass (Alopecurus myosuroides), canarygrass (Phalaris minor), chickweed (common chickweed, Stellaria media), galium (catchweed bedstraw, Galium aparine), bromegrass, downy (downy bromegrass, Bromus tectorum), field poppy (Papaver rhoeas), field violet (Viola arvensis), foxtail, green (green foxtail, Setaria viridis), deadnettle (henbit deadnettle, Lamium amplexicaule), ryegrass, Italian (Italian ryegrass, Lolium multiflorum), kochia (Kochia scoparia), lambsquarters (Chenopodium album), oilseed rape (Brassica napus), pigweed (Amaranthus retroflexus), Russian thistle (Salsola iberica), chamomile (scentless chamomile, Matricaria inodora), speedwell (bird's-eye speedwell, Veronica persica), barley, spring (spring barley, Hordeum vulgare), wheat, spring (spring wheat, Triticum aestivum), buckwheat, wild (wild buckwheat, Polygonum convolvulus), mustard, wild (wild mustard, Sinapis arvensis), oat, wild (wild oat, Avena fatua), radish, wild (wild radish, Raphanus raphanistrum), windgrass (Apera spica-venti), barley, winter (winter barley, Hordeum vulgare), and wheat, winter (winter wheat, Triticum aestivum) were planted into a silt loam soil and treated preemergence with test chemicals formulated in a non-phytotoxic solvent mixture which included a surfactant. At the same time, these same crop and weed species were planted in pots containing the planting medium comprising spaghnum peat moss, vermiculite, wetting agent and starter nutrients and treated with postemergence applications of the test chemicals formulated in the same manner. Plants ranged in height from 2 to 18 cm (1- to 4-leaf stage).
(§2) Treated plants and controls were maintained in a controlled growth environment for 14 to 21 days after which time all species were compared to controls and visually evaluated. Plant response ratings, summarized in Table D, are based on a scale of 0 to 100 where 0 is no effect and 100 is complete control. A dash (-) response means no test result.

[3] = system: kochia (Kochia scoparia); assay: Test D pre-/postemergence: kochia
Description: as §1, §2

[4] = system: wheat, winter (winter wheat, Triticum aestivum); assay: Test D pre-/postemergence: wheat, winter
Description: as §1, §2

[5] = Flood (flooded paddy test), visual rating after 13 to 15 days
[6] = Postemergence, 31 g ai/ha, scale 0 to 100 (0 no effect, 100 complete control)
[7] = Postemergence, 62 g ai/ha, scale 0 to 100 (0 no effect, 100 complete control)
[8] = Postemergence, 125 g ai/ha, scale 0 to 100, 0 no effect, 100 complete control
[9] = Postemergence, 250 g ai/ha, scale 0 to 100 (0 no effect, 100 complete control)
[10] = Preemergence, 31 g ai/ha, scale 0 to 100, 0 no effect, 100 complete control
[11] = Preemergence, 62 g ai/ha, scale 0 to 100
[12] = Preemergence, 125 g ai/ha, scale 0 to 100
[13] = Preemergence, 250 g ai/ha, scale 0 to 100
[14] = Postemergence, 16 g ai/ha, scale 0 to 100
[15] = Preemergence, 16 g ai/ha, scale 0 to 100, 0 no effect, 100 complete control

Row | Structure (SMILES) | plant injury at 62 g/ha [1, 5] [%] | plant injury at 250 g/ha [1, 5] [%] | Plant response rating: Bromegrass, Downy [2, 6] | Plant response rating: Bromegrass, Downy [2, 7] | Plant response rating: Bromegrass, Downy [2, 8] | Plant response rating: Bromegrass, Downy [2, 9] | Plant response rating, Bromegrass, Downy [2, 10] | Plant response rating, Bromegrass, Downy [2, 11] | Plant response rating, Bromegrass, Downy [2, 12] | Plant response rating: Kochia [3, 6] | Plant response rating: Kochia [3, 7] | Plant response rating: Kochia [3, 8] | Plant response rating: Kochia [3, 9] | Plant response rating, Kochia [3, 10] | Plant response rating, Kochia [3, 11] | Plant response rating, Kochia [3, 12] | Plant response rating: Wheat, Winter [4, 6] | Plant response rating: Wheat, Winter [4, 7] | Plant response rating: Wheat, Winter [4, 8] | Plant response rating: Wheat, Winter [4, 9] | other results
1 | Cc1nn(-c2ccc(C(F)(F)F)cc2)nc1Oc1csc(C(F)(F)F)c1 [Compound 1, 4-methyl-2-[4-(trifluoromethyl)phenyl]-5-[[5-(trifluoromethyl)-3-thienyl]oxy]-2H-1,2,3-triazole] | 0 | 0 |  |  |  |  |  |  |  |  |  |  |  |  |  |  |  |  |  |  | 
2 | FC(F)(F)COc1nn(-c2ccc(C(F)(F)F)cc2)nc1Cc1ccnc(C(F)(F)F)c1 [Compound 14, 4-[[5-(2,2,2-trifluoroethoxy)-2-[4-(trifluoromethyl)phenyl]-2H-1,2,3-triazol-4-yl]methyl]-2-(trifluoromethyl)pyridine] | 40 | 45 | 15 | 20 | 30 | 40 | 0 | 10 | 20 | 95 | 95 | 100 | 100 | 10 | 40 | 80 | 5 | 5 | 15 | 25 | Plant response rating, Bromegrass, Downy [2, 13]: 30; Plant response rating, Kochia [3, 13]: 90; Plant response rating, Wheat, Winter [4, 10]: 0; Plant response rating, Wheat, Winter [4, 11]: 0; Plant response rating, Wheat, Winter [4, 12]: 10; Plant response rating, Wheat, Winter [4, 13]: 20
3 | COc1nn(-c2ccc(C(F)(F)F)cc2)nc1Cc1ccnc(C(F)(F)F)c1 [Compound 15, 4-[[5-methoxy-2-[4-(trifluoromethyl)phenyl]-2H-1,2,3-triazol-4-yl]methyl]-2-(trifluoromethyl)pyridine] | 45 | 50 | 10 | 10 | 20 | 40 | 0 | 0 | 0 | 90 | 90 | 100 | 100 | 0 | 0 | 70 | 10 | 15 | 25 | 35 | Plant response rating, Bromegrass, Downy [2, 14]: 5; Plant response rating, Bromegrass, Downy [2, 13]: 40; Plant response rating, Kochia [3, 14]: 20; Plant response rating, Kochia [3, 13]: 100; Plant response rating, Wheat, Winter [4, 14]: 5; Plant response rating, Wheat, Winter [4, 10]: 0; Plant response rating, Wheat, Winter [4, 11]: 0; Plant response rating, Wheat, Winter [4, 12]: 0; Plant response rating, Wheat, Winter [4, 13]: 5
4 | COCc1nn(-c2ccc(C(F)(F)F)cc2)nc1Oc1cccc(OC(F)(F)F)c1 [Compound 115, 4-(methoxymethyl)-5-[3-(trifluoromethoxy)phenoxy]-2-[4-(trifluoromethyl)phenyl]-2H-1,2,3-triazole] |  | 40 |  |  |  |  |  |  |  |  |  |  |  |  |  |  |  |  |  |  | plant injury at 125 g/ha [1, 5]: 30%; plant injury at 62 g/ha ([1]; Flood): 20%
5 | FCc1nn(-c2ccc(C(F)(F)F)cc2)nc1Oc1cccc(OC(F)(F)F)c1 [Compound 116, 4-(fluoromethyl)-5-[3-(trifluoromethoxy)phenoxy]-2-[4-(trifluoromethyl)phenyl]-2H-1,2,3-triazole] |  | 30 |  |  |  |  |  |  |  |  |  |  |  |  |  |  |  |  |  |  | plant injury at 125 g/ha [1, 5]: 20%; plant injury at 62 g/ha ([1]; Flood): 0%
6 | COc1nn(-c2ccc(C(F)(F)F)cc2)nc1Cc1ccnc(C(F)F)c1 [Compound 138] |  |  | 20 | 30 | 40 | 50 |  |  |  | 95 | 100 | 100 | 100 |  |  |  | 20 | 20 | 20 | 25 | Plant response rating, Bromegrass, Downy [2, 14]: 10; Plant response rating, Kochia [3, 14]: 95; Plant response rating, Wheat, Winter [4, 14]: 10
7 | Cc1nn(-c2ccc(F)c(C(F)(F)F)c2)nc1Cc1ccnc(C(F)(F)F)c1 [Compound 156] |  |  | 10 | 15 | 35 |  | 5 | 20 | 95 | 80 | 95 | 90 |  | 30 | 65 | 80 | 15 | 15 | 20 |  | Plant response rating, Bromegrass, Downy [2, 14]: 10; Plant response rating, Bromegrass, Downy [2, 15]: 0; Plant response rating, Kochia [3, 14]: 75; Plant response rating, Kochia [3, 15]: 10; Plant response rating, Wheat, Winter [4, 14]: 10; Plant response rating, Wheat, Winter [4, 15]: 0; Plant response rating, Wheat, Winter [4, 10]: 0; Plant response rating, Wheat, Winter [4, 11]: 0; Plant response rating, Wheat, Winter [4, 12]: 5
